Experimental data published in PMC4835124 (Drug Design, Development and Therapy, 2016).
Read-outs that look alike come from different tables or passages of the source.

What was measured:
[1] = multiple dosing, 5–20 mg dose range, healthy volunteers; cited from earlier work
[2] = single administration in healthy volunteers; cited from earlier work
Food effect study = type: in vivo, human; settings: for CL/F: Part 2, FDC_EVO5/MET1000 single oral dose, n=27, mean ± SD
[3] = Comparative pharmacokinetic study; settings: for CL/F: fasting, n=35, mean ± SD; for Tmax: po
[4] = Part 1, EVO+MET (individual tablets) single oral dose
[5] = Part 1, FDC_EVO5/MET1000 single oral dose, plasma

Row | SMILES | dose linearity of pharmacokinetics [1] | effect of food on pharmacokinetics [2] | half-life [2] [h] | CL/F (Food effect study; Fasted) [L/h] | CL/F (Food effect study; Fed) [L/h] | effect of food on pharmacokinetics (Food effect study; single oral dose of FDC_EVO5/MET1000, fed vs fasted) | CL/F [3, 4] [L/h] | CL/F [3, 5] [L/h] | Tmax ([3]; male, human, in vivo) [h] | half-life ([3]; male, human, in vivo, terminal half-life, present study) [h] | intrasubject variability in CL/F ([3]; present study) | increase of AUClast under the fed condition compared to the fasted condition (Food effect study; FDC_EVO5/MET1000 single oral dose)
1 | CC(C)(C)OC[C@@H]1C(=O)NCCN1C(=O)C[C@H](N)Cc1cc(F)c(F)cc1F [Evogliptin, evogliptin] | linear pharmacokinetics | not affected by food | ≥ 30 | 25.05 ± 6.68 | 23.76 ± 5.07 | did not significantly affect | 28.56 ± 8.64 | 28.81 ± 9.19 | 5 | > 24 | around 10.0% | –
2 | CN(C)C(=N)N=C(N)N [Metformin, metformin] | – | – | – | 112.95 ± 28.61 | 78.76 ± 20.56 | – | 126.15 ± 35.21 | 126.82 ± 38.28 | 4 | – | – | 36%–60%
